Experimental data taken from US20060199803A1, “Compounds” (Kudos Pharmaceuticals Ltd, priority 2005, published 2006).

These compounds were tested against T1, mTOR protein (Homo sapiens, UniProt P42345) (assay: mTOR enzyme activity assay (immunoprecipitated mTOR, recombinant PHAS-1 as substrate)). Conditions: mTOR isolated from HeLa cell cytoplasmic extract by immunoprecipitation; recombinant PHAS-1 substrate.
T1 construct: mTOR protein was isolated from HeLa cell cytoplasmic extract by immunoprecipitation; endogenous in cells; host or cells: HeLa cell cytoplasmic extract (immunoprecipitation)
Type: biochemical

IC50, < 1.5 µM:
COC(=O)C(=O)NCC1CN(c2nc(N3CCOC[C@@H]3C)c3cccnc3n2)CCO1 (stereo partly drawn) [5m]
OCCC1CCCCN1c1nc(N2CCOCC2)c2cccnc2n1 (stereo not drawn) [4o]
C[C@H]1CCCCN1c1nc(N2CCCOCC2)c2cccnc2n1 [4ab]
C[C@H]1COCCN1c1nc(N2CCOC(COc3nccc4ccccc34)C2)nc2ncccc12 (stereo partly drawn) [5z]
C[C@@H]1CN(c2nc(N3CCOCC3)c3cccnc3n2)C[C@H](C)O1 [4c]
C[C@H]1COCCN1c1nc(N2CCOC(CNC(=O)c3cccs3)C2)nc2ncccc12 (stereo partly drawn) [5k]
C[C@@H]1CN(c2nc(N3CCOC[C@@H]3C)c3cccnc3n2)C[C@H](C)O1 [4af]
NC(=O)C1CCN(c2nc(N3CCOCC3)c3ccncc3n2)CC1 [4d]
C[C@H]1COCCN1c1nc(N2CCOCC2c2ccccc2)nc2ncccc12 (stereo partly drawn) [4ah]
FC(F)(F)C1CCCN(c2nc(N3CCOCC3)c3cccnc3n2)C1 (stereo not drawn) [4h]
CCC1CCCCN1c1nc(N2CCOCC2)c2cccnc2n1 (stereo not drawn) [4n]
C[C@H]1COCCN1c1nc(N2CCOC(Cn3c(=O)oc4ccccc43)C2)nc2ncccc12 (stereo partly drawn) [5h]
C[C@H]1COCCN1c1nc(N2CCOC(c3ccccc3)C2)nc2ncccc12 (stereo partly drawn) [4ag]
C[C@H]1COCCN1c1nc(N2CCOC(CN3C(=O)c4cccc(N)c4C3=O)C2)nc2ncccc12 (stereo partly drawn) [5g]
c1cnc2nc(N3CCCCC3)nc(N3CCOCC3)c2c1 [4y]
